# Key:
# Type in all cases: cell-based, human
# [1] = test system: HEK293 cells; assay: 3-day in vitro cytotoxicity assay (nuclear counts); details: 3-day treatment
# Procedure: (§1) To determine the relative cell-killing potency of anti-MET antibody drug conjugates (ADCs) described herein, cell-killing assays were run on multiple cells lines expressing varying levels of endogenous MET.
# (§2) To measure in vitro cytotoxicity of anti-MET ADCs, nuclear counts after a 3 or 6-day treatment with the ADCs was assessed. […] For cell viability curves, serially diluted ADCs, unconjugated antibodies, or free payloads were added to the cells at final concentrations ranging from 100 nM to 0.01 nM (based on toxin concentration) and incubated for 3 or 6 days at 37° C. in 5% CO2. Cells were subsequently treated with 3 ug/ml Hoechst 33342 nuclear stain (Invitrogen, #H3570) while being fixed with 4% formaldehyde. Images were acquired on the ImageXpress micro XL (Molecular Devices, Sunnyvale, Calif.) and nuclear counts were determined via MetaXpress image analysis software (Molecular Devices, Sunnyvale, Calif.). Background nuclear counts from cells treated with […] digitonin were subtracted from all wells and viability was expressed as a percentage of the untreated controls. IC50 values were determined from a four-parameter logistic equation over a 10-point response curve (GraphPad Prism). The untreated condition for each dose-response curve is also included in the analysis and is represented as the lowest dose.
# [2] = test system: A549 cells; assay: 3-day in vitro cytotoxicity assay (nuclear counts); details: 3-day treatment
# Procedure: as §1, §2
# [3] = test system: T47D cells; assay: 3-day in vitro cytotoxicity assay (nuclear counts); details: 3-day treatment
# Procedure: as §1, §2
# [4] = test system: J.RT3 cells; assay: 3-day in vitro cytotoxicity assay (nuclear counts); details: 3-day treatment
# Procedure: as §1, §2
# [5] = test system: U87MG cells; assay: 3-day in vitro cytotoxicity assay (nuclear counts); details: 3-day treatment
# Procedure: as §1, §2
# [6] = test system: MDA-MB-231 cells; assay: 3-day in vitro cytotoxicity assay (nuclear counts); details: 3-day treatment
# Procedure: as §1, §2
# [7] = test system: Hs746T cells; assay: 3-day in vitro cytotoxicity assay (nuclear counts); details: 3-day treatment
# Procedure: as §1, §2
# [8] = test system: MET pathway in NCI-H596 cells; assay: Immunoblot of MET and ERK phosphorylation, time course; details: HGF 50 ng/ml
# Procedure: 250,000 NCI-H596 cells were seeded in a 12 well plate and cultured in RPMI Media supplemented with 10% FBS. […] The cells were subsequently incubated in 5% CO2 at 37° C. After 0, 2, 6 or 18 hours, cell lysates were prepared, protein content was normalized and immunoblot analysis was performed. MET phosphorylation and ERK phosphorylation were quantified with the ImageJ image processing program (T. Collins, BioTechniques 43: S25-S30, 2007). Phosphorylation levels were normalized to the Tubulin loading control and are expressed as fold change relative to control treatment.
# [9] = test system: MET (c-Met) in HEK293/SRE-Luc cells; assay: SRE-luciferase reporter bioassay, ligand (HGF)-independent MET activation; details: antibody alone at various concentrations; result in words
# Excerpt: (§3) The ability of anti-MET antibodies to block hepatocyte growth factor (HGF)-mediated MET activation was examined in a luciferase-based reporter assay. The growth factor HGF binds to the extracellular domain of its receptor c-Met (MET), triggering rapid homodimerization and activating several downstream signaling cascades. The anti-MET antibodies tested in this example were bivalent monospecific binders of MET, or anti-MET “bispecifics”, in which each arm of the bispecific antibody bound to a different and distinct epitope on MET. […]
# (§4) Next, 2.0×10^5 HEK293/SRE-Luc cells were seeded in luciferase assay media in 96 well plates and incubated overnight at 37° C. in 5% CO2. […] Separately, the ability of the antibodies to activate c-Met in the absence of ligand was also assessed.
# (§5) Luciferase activity was detected using the ONE-Glo™ Luciferase Assay System (Promega, Madison, Wis.), and emitted light was measured on a Victor or Envision luminometer (Perkin Elmer, Shelton, Conn.) and expressed as relative light units (RLUs). EC50/IC50 values were determined from a four-parameter logistic equation over a 12-point response curve using […] […]
# [10] = test system: MET (c-Met) in HEK293/SRE-Luc cells; assay: SRE-luciferase reporter bioassay, blocking of HGF-mediated MET activation; details: antibodies plus HGF ligand; result in words
# Excerpt: as §3, §4, §5
# [11] = test system: A549 cells; assay: 6-day in vitro cytotoxicity assay (nuclear counts); details: 6-day treatment
# Procedure: as §1, §2
# [12] = test system: T47D cells; assay: 6-day in vitro cytotoxicity assay (nuclear counts); details: 6-day treatment
# Procedure: as §1, §2
# [13] = test system: Hs746T cells; assay: 6-day in vitro cytotoxicity assay (nuclear counts); details: 6-day treatment
# Procedure: as §1, §2
# [14] = test system: EBC-1 cells; assay: 6-day in vitro cytotoxicity assay (nuclear counts); details: 6-day treatment
# Procedure: as §1, §2
# [15] = test system: SNU-5 cells; assay: 3-day in vitro cytotoxicity assay (nuclear counts); details: 3-day treatment
# Procedure: as §1, §2
# [16] = test system: MKN-45 cells; assay: 3-day in vitro cytotoxicity assay (nuclear counts); details: 3-day treatment
# Procedure: as §1, §2
# [17] = test system: NCI-H1993 cells; assay: 3-day in vitro cytotoxicity assay (nuclear counts); details: 3-day treatment
# Procedure: as §1, §2
# [18] = test system: EBC-1 cells; assay: 3-day in vitro cytotoxicity assay (nuclear counts); details: 3-day treatment
# Procedure: as §1, §2
compound,measurement,setting,value
COc1cc2cc(c1Cl)N(C)C(=O)CC(OC(=O)C(C)N(C)C(=O)CCS)C1(C)OC1C(C)C1CC(O)(NC(=O)O1)C(OC)C=CC=C(C)C2 (centres unmarked) [DM1 (free drug)],IC50,[1],0.15 nM
same,Max % Kill,[1],95%
same,IC50,[2],2.56 nM
same,Max % Kill,[2],97%
same,IC50,[3],1.33 nM
same,Max % Kill,[3],91%
same,IC50,[4],0.07 nM
same,Max % Kill,[4],100%
same,IC50,[5],0.61 nM
same,Max % Kill,[5],89%
same,IC50,[6],1.53 nM
same,Max % Kill,[6],89%
same,IC50,[7],1.46 nM
same,Max % Kill,[7],81%
"HGF: hepatocyte growth factor, the MET ligand / MET-agonist [reference compound]",time of peak activation of MET and ERK,[8],2 h
"monovalent anti-MET antibody: monovalent MET antibody generated using the heavy and light chain variable sequences of MetMab (U.S. Pat. No. 7,892,550 B2) [reference compound]","MET agonist activity in the absence of HGF ligand (SRE-luciferase, FIG. 3A, FIG. 4A)",[9],neither the monovalent nor the MET×MET bispecific antibody showed MET agonist activity
same,"blocking of HGF-dependent MET activation (SRE-luciferase, FIG. 3B, FIG. 4B)",[10],showed greater HGF blocking
COc1cc2cc(c1Cl)N(C)C(=O)CC(OC(=O)C(C)N(C)C(=O)CCSSC)C1(C)OC1C(C)C1CC(O)(NC(=O)O1)C(OC)C=CC=C(C)C2 (centres unmarked) [DM1 (MeS-DM1)],IC50,[11],0.49 nM
same,Max % Kill,[11],90%
same,IC50,[12],0.24 nM
same,Max % Kill,[12],96%
same,IC50,[13],1.39 nM
same,Max % Kill,[13],88%
same,IC50,[14],0.12 nM
same,Max % Kill,[14],62%
same,IC50,[15],1.22 nM
same,Max % Kill,[15],99%
same,IC50,[16],2.73 nM
same,Max % Kill,[16],85%
same,IC50,[17],2.86 nM
same,Max % Kill,[17],81%
same,IC50,[18],2.22 nM
same,Max % Kill,[18],90%
CNCCC(=O)N(C)C(C)C(=O)OC1CC(=O)N(C)c2cc(cc(OC)c2Cl)CC(C)=CC=CC(OC)C2(O)CC(OC(=O)N2)C(C)C2OC12C (centres unmarked) [M24 (Maytansinoid B released payload)],IC50,[11],> 100 nM
same,Max % Kill,[11],10%
same,IC50,[12],> 100 nM
same,Max % Kill,[12],0%
same,IC50,[13],> 100 nM
same,Max % Kill,[13],10%
same,IC50,[14],> 100 nM
same,Max % Kill,[14],32%

# — patent US12545735B2, “Anti-met antibodies, bispecific antigen binding molecules that bind met, and methods of use thereof” (REGENERON PHARMACEUTICALS, INC., priority 2016, dated 2026)
